From US20030083336A1, “Phenylpiperazinyl derivatives” (H. Lundbeck A/S, priority 1999, published 2003)
pIC50: −log10 of the molar value. Structures can show the parent of a compound that is named as a salt.

Assays:
[1] = target: T1, human cloned dopamine D3 receptors (Homo sapiens, UniProt P35462); assay: Inhibition of the binding of [3H]-Spiperone to human D3 receptors; details: [3H]Spiperone 0.3 nM; for pIC50: membranes of CHO-cells, read-out: D3-bind. IC50; for inhibition at 0.05 µM: test compound at 50 nM, read-out: D3-bind. % inhibition of binding at 50 nM
T1 construct: expressed in transfected cells; host or cells: CHO cells
T1 sequence (P35462 whole entry): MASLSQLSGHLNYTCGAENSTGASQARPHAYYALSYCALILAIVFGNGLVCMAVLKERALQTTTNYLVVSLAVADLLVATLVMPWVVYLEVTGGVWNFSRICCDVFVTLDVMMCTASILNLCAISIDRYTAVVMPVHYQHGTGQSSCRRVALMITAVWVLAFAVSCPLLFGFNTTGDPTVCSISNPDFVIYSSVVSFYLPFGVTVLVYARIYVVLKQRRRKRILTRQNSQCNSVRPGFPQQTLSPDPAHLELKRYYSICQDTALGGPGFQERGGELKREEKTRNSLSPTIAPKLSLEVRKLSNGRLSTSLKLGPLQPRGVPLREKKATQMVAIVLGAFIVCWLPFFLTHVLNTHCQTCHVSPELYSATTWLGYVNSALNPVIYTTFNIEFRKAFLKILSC
Description: Inhibition of the Binding of [^3H]-Spiperone to Human D3 Receptors
By this method the inhibition by drugs of the binding [^3H]Spiperone (0.3 nM) to membranes of human cloned dopamine D3 receptors expressed in CHO-cells is determined in vitro. Method modified from R. G. MacKenzie et al. Eur. J. Pharm.-Mol. Pharm. Sec. 1994, 266, 79-85. The results are given in the following Table 1 as IC50-values or as percent inhibition of the binding of ^3H-Spiperone at the concentration of the test compound indicated.

[2] = target: T2, human cloned dopamine D4.2 receptors (Homo sapiens, UniProt P21917, DEL265-296); assay: Inhibition of the binding of 3H-YM-09151-2 to human dopamine D4 receptors; details: [3H]YM-09151-2 0.06 nM; for pIC50: membranes of CHO-cells, read-out: D4-bind. IC50; for inhibition at 0.05 µM: test compound at 50 nM, read-out: D4-bind. % inhibition of binding at 50 nM
T2 construct: expressed in transfected cells; host or cells: CHO cells
T2 sequence (P21917 with tags, fused parts or gaps DEL265-296): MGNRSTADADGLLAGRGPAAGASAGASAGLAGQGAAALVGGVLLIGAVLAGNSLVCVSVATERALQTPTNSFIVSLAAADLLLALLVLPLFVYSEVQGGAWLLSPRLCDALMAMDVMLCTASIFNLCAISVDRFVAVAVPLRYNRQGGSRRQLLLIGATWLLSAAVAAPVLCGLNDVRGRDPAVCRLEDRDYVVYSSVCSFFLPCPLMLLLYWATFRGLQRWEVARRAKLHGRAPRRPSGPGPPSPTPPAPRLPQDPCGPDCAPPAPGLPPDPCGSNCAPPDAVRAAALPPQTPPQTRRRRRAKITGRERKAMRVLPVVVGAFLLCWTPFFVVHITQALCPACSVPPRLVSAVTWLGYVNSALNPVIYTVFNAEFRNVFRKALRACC
Description: Inhibition of the Binding of ^3H-YM-09151-2 to Human Dopamine D4 Receptors
By this method the inhibition by drugs of the binding of [^3H]YM-09151-2 (0.06 nM) to membranes of human cloned dopamine D4.2 receptors expressed in CHO-cells is determined in vitro. Method modified from NEN Life Science Products, Inc., technical data certificate PC2533-10/96. The results are given in the following Table 1 as IC50-values or as percent inhibition of the binding of ^3H-YM-09151 -2 at the concentration of the test compound indicated.

## CCN(CC)c1cccc(Oc2cccc(N3CCN(CCCc4c[nH]c5ccc(Cl)cc45)CC3)c2C)c1 [Compound 2c, 1-{3-[3-(Diethylamino)phenox]-2-methylphenyl}-4-[3-(5-chloro-1H-indol-3-yl)propyl]piperazine]
[1]
  pIC50: 7.89
[2]
  pIC50: 8.26

## Cc1c(Oc2cccc(N(C)C)c2)cccc1N1CCN(CCCc2c[nH]c3c(F)cc(F)cc23)CC1 [Compound 2z, 1-{3-[3-(Dimethylamino)phenoxy]-2-methylphenyl}-4-[3-(5,7-difluoro-1H-indol-3-yl)propyl]piperazine]
[1]
  inhibition at 0.05 µM: 59%
[2]
  pIC50: 7.49

## Cc1c(N2CCN(CCCc3c[nH]c4ccccc34)CC2)cccc1N1CCC[C@H]1CO [Compound 2o, (S)-1-[3-(2-Hydroxymethylpyrrolidin-1-yl)-2-methylphenyl]-4-[3-(1H-indol-3-yl)propyl]piperazine]
[1]
  inhibition at 0.05 µM: 19%
[2]
  pIC50: 7.28

## Cc1c(N2CCN(CCCc3c[nH]c4c(F)cc(F)cc34)CC2)cccc1N1CC(C)OC(C)C1 (stereo not drawn) [Compound 2w, 1-[3-(2,6-Dimethylmorpholin-4-yl)-2-methylphenyl]-4-[3-(5,7-difluoro-1H-indol-3-yl)propyl]piperazine]
[1]
  inhibition at 0.05 µM: 43%
[2]
  pIC50: 7.47

## CCN(CC)c1cccc(Oc2cccc(N3CCN(CCCCc4c[nH]c5ccc(F)cc45)CC3)c2C)c1 [Compound 2k, 1-{3-[3-(Diethylamino)phenoxy]-2-methylphenyl}-4-[4-(5-fluoro-1H-indol-3-yl)butyl]piperazine]
[1]
  inhibition at 0.05 µM: 96%
[2]
  pIC50: 7.40

## CCN(CC)c1cccc(Oc2cccc(N3CCN(CCCc4c[nH]c5ccc(F)cc45)CC3)c2C)c1 [Compound 2a]
[1]
  pIC50: 8.00
[2]
  pIC50: 8.27

## CCN(CC)c1cccc(Oc2cccc(N3CCN(CCCc4c[nH]c5ccccc45)CC3)c2C)c1 [Compound 2f, 1-{3-[3-(Diethylamino)phenoxy]-2-methylphenyl}-4-[3-(1H-indol-3-yl)propyl]piperazine]
[1]
  inhibition at 0.05 µM: 70%
[2]
  pIC50: 7.46

## CCN(CC)c1cccc(Oc2cccc(N3CCN(CCCc4c[nH]c5c(F)cc(F)cc45)CC3)c2C)c1 [Compound 2d, 1-{3-[3-(Diethylamino)phenoxy]-2-methylphenyl}-4-[3-(5,7-difluoro-1H-indol-3-yl)propyl]piperazine]
[1]
  inhibition at 0.05 µM: 70%
[2]
  pIC50: 7.92

## CCN(CC)c1cccc(Oc2cccc(N3CCCN(CCCc4c[nH]c5c(F)cc(F)cc45)CC3)c2C)c1 [Compound 2x, 1-{3-[3-(Diethylamino)phenoxy]-2-methylphenyl}-4-[3-(5,7-difluoro-1H-indol-3-yl)propyl]-1,4-diazepane]
[1]
  inhibition at 0.05 µM: 66%
[2]
  pIC50: 7.12

## Cc1c(Oc2ccc3c(c2)OCO3)cccc1N1CCN(CCCc2c[nH]c3ccccc23)CC1 [Compound 2i, 1-[3-(1,3-Benzodioxolan-5-yloxy)-2-methylphenyl]-4-[3-(1H-indol-3-yl)propyl]piperazine]
[1]
  inhibition at 0.05 µM: 54%
[2]
  pIC50: 7.46

## Cc1c(N2CCN(CCCc3c[nH]c4ccc(F)cc34)CC2)cccc1N1CC(C)OC(C)C1 (stereo not drawn) [Compound 2j, 1-[3-(2,6-Dimethylmorpholin-4-yl)-2-methylphenyl]-4-[3-(5-fluoro-1H-indol-3-yl)propyl]piperazine]
[1]
  inhibition at 0.05 µM: 57%
[2]
  pIC50: 7.44

## Cc1c(Oc2ccc3c(c2)OCO3)cccc1N1CCN(CCCc2c[nH]c3ccc(F)cc23)CC1 [Compound 2q, 1-[3-(1,3-Benzodioxolan-5-yloxy)-2-methylphenyl]-4-[3-(5-fluoro-1H-indol-3-yl)propyl]piperazine]
[1]
  inhibition at 0.05 µM: 61%
[2]
  pIC50: 7.37

## Cc1c(N2CCN(CCCc3c[nH]c4c(F)cc(F)cc34)CC2)cccc1N1CCC[C@H]1CO [Compound 2s, (S)-1-[3-(2-Hydroxymethylpyrrolidin-1-yl)-2-methylphenyl]-4-[3-(5,7-difluoro-1H-indol-3-yl)propyl]piperazine]
[1]
  inhibition at 0.05 µM: 36%
[2]
  pIC50: 7.39

## Cc1c(N2CCOCC2)cccc1N1CCN(CCCc2c[nH]c3ccccc23)CC1 [Compound 1b, 1-[3-(1H-Indol-3-yl)propyl]-4-[2-methyl-3-(morpholin-4-yl)-phenyl]piperazine]
[1]
  pIC50: 6.66
[2]
  pIC50: 8.23

## Cc1c(N2CCOCC2)cccc1N1CCN(CCCc2c[nH]c3ccc(Cl)cc23)CC1 [Compound 2l, 1-[3-(Morpholin-4-yl)-2-methylphenyl]-4-[3-(5-chloro-1H-indol-3-yl)propyl]piperazine]
[1]
  inhibition at 0.05 µM: 40%
[2]
  pIC50: 7.52

## Cc1c(N2CCOCC2)cccc1N1CCN(CCCc2c[nH]c3ccccc23)CC1 (hydrate or solvate) [Compound 1b, 1-[3-(1H-Indol-3-yl)propyl]-4-[2-methyl-3-(morpholin-4-yl)-phenyl]piperazine]
other
  melting point: 112 to 113 °C

## Cc1c(Oc2cccc(N(C)C)c2)cccc1N1CCN(CCCc2c[nH]c3ccccc23)CC1 [Compound 1a]
[1]
  pIC50: 7.59
[2]
  pIC50: 7.32

## Cc1c(Oc2cccc(N(C)C)c2)cccc1N1CCN(CCCc2c[nH]c3ccc(Cl)cc23)CC1 [Compound 2m]
[1]
  inhibition at 0.05 µM: 74%
[2]
  pIC50: 7.24

## Cc1c(N2CCN(CCCc3c[nH]c4ccc(F)cc34)CC2)cccc1N1CCC[C@H]1CO [Compound 2p, (S)-1-[3-(2-Hydroxymethylpyrrolidin-1-yl)-2-methylphenyl]-4-[3-(5-fluoro-1H-indol-3-yl)propyl]piperazine]
[1]
  inhibition at 0.05 µM: 54%
[2]
  inhibition at 0.05 µM: 67%

## Cc1c(Oc2cccc(N(C)C)c2)cccc1N1CCN(CCCc2c[nH]c3ccc(F)cc23)CC1 [Compound 2h, 1-{3-[3-(Dimethylamino)phenoxy]-2-methylphenyl}-4-[3-(5-fluoro-1H-indol-3-yl)propyl]piperazine]
[1]
  inhibition at 0.05 µM: 77%
[2]
  pIC50: 7.43

## CCN(CC)c1cccc(Oc2cccc(N3CCN(CCCCc4c[nH]c5ccc(Cl)cc45)CC3)c2C)c1 [Compound 2ab, 1-{3-[3-(Diethylamino)phenoxy]-2-methylphenyl}-4-[4-(5-chloro-1H-indol-3-yl)butyl]piperazine]
[1]
  inhibition at 0.05 µM: 83%
[2]
  inhibition at 0.05 µM: 53%

## Cc1c(Oc2cccc(N(C)C)c2)cccc1N1CCN(CCCCc2c[nH]c3c(F)cc(F)cc23)CC1 [Compound 2r, 1-{3-[3-(Dimethylamino)phenoxy]-2-methylphenyl}-4-[4-(5,7-difluoro-1H-indol-3-yl)butyl]piperazine]
[1]
  inhibition at 0.05 µM: 90%
[2]
  pIC50: 7.21

## Cc1c(Oc2ccc3c(c2)OCO3)cccc1N1CCN(CCCc2c[nH]c3c(F)cc(F)cc23)CC1 [Compound 2t, 1-[3-(1,3-Benzodioxolan-5-yloxy)-2-methylphenyl]-4-[3-(5,7-difluoro-1H-indol-3-yl)propyl]piperazine]
[1]
  inhibition at 0.05 µM: 54%
[2]
  pIC50: 7.33

## Cc1c(N2CCOCC2)cccc1N1CCCN(CCCc2c[nH]c3ccc(F)cc23)CC1 [Compound 2aa, 1-[3-(Morpholin-4-yl)-2-methylphenyl]-4-[3-(5-fluoro-1H-indol-3-yl)propyl]-1,4-diazepane]
[1]
  inhibition at 0.05 µM: 40%
[2]
  inhibition at 0.05 µM: 53%

## COc1cc(Oc2cccc(N3CCN(CCCc4c[nH]c5ccc(F)cc45)CC3)c2C)cc(OC)c1OC [Compound 2b, 1-[2-Methyl-3-(3,4,5-trimethoxyphenoxy)phenyl]-4-[3-(5-fluoro-1H-indol-3-yl)propyl]piperazine]
[1]
  pIC50: 8.17
[2]
  inhibition at 0.05 µM: 98%

## COc1cc(Oc2cccc(N3CCN(CCCc4c[nH]c5ccc(Cl)cc45)CC3)c2C)cc(OC)c1OC [Compound 2e, 1-[2-Methyl-3-(3,4,5-trimethoxyphenoxy)phenyl}-4-[3-(5-chloro-1H-indol-3-yl)propyl]piperazine]
[1]
  inhibition at 0.05 µM: 71%
[2]
  pIC50: 8.00

## Cc1c(N2CCCN(CCCc3c[nH]c4ccc(F)cc34)CC2)cccc1N1CC(C)OC(C)C1 (stereo not drawn) [Compound 2g, 1-[3-(2,6-Dimethylmorpholin-4-yl)-2-methylphenyl]-4-[3-(5-fluoro-1H-indol-3-yl)propyl]-1,4-diazepan]
[1]
  inhibition at 0.05 µM: 65%
[2]
  pIC50: 7.59

## Cc1c(N2CCOCC2)cccc1N1CCN(CCCc2c[nH]c3ccc(F)cc23)CC1 (as salt: HCl) [Compound 1d, 1-[2-methyl-3-(morpholin-4-yl)phenyl]-4-[3-(5-fluoro-1H-indol-3-yl)propyl]piperazine]
other
  melting point: 212 to 215 °C
